Calls of active or inactive are those of the source. The rule behind the calls is not given here.
System: M. tuberculosis H37Rv growth inhibition with meropenem
Test: dose response, H37Rv, with and without meropenem (AID 434987);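 note: growth over 7 days at 37 °C before Alamar Blue read on day 9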
[1] = M. tuberculosis H37Rv growth inhibition, measured here: IC50 without meropenem
[2] = M. tuberculosis H37Rv growth inhibition, measured here: IC90 without meropenem
[3] = measured here: IC90 with meropenem

Structure (SMILES)	IC50	IC50 [1]	IC90 [2]	IC90 [3]
Cc1cc(C)cc(SCc2noc(C(=O)NC(C)C)c2C(=O)O)c1	25.1 µM (inactive)	45.2 µM	50.7 µM	27.3 µM
CCn1cc(C(=O)O)c(=O)c2cc(F)c(N3CCN(C(=S)NC(=O)c4ccccc4C)CC3)cc21	10.9 µM (inactive)	19.5 µM	28.3 µM	16 µM
Cc1ccc(/C=N\NC(=O)c2csnn2)cc1	66.4 µM (inactive)	> 100 µM	> 100 µM	> 100 µM
CC(=O)Nc1ccc(SCC(=O)c2cc(C)n(C)c2C)cc1	47 µM (inactive)	57.3 µM	> 100 µM	53.6 µM
CN1C2CCC1CC(OC(=O)c1ccc([N+](=O)[O-])cc1)C2 (stereo unspecified)	> 100 µM (inactive)	> 100 µM	> 100 µM	> 100 µM
O=C(/C=C/c1ccccn1)c1cc(Br)ccc1O	21.8 µM (inactive)	37.4 µM	58.6 µM	45.1 µM
c1ccc(Nc2ncnc3c2oc2ccccc23)cc1	2 µM	> 100 µM	> 100 µM	> 100 µM
COc1cc(/C=N/NC(=S)Nc2cccc(S(=O)(=O)N(C)C)c2)cc(OC)c1O	> 100 µM (inactive)	> 100 µM	> 100 µM	> 100 µM
O=C(OCC(=O)c1ccc[nH]1)C1=COCCO1	18.3 µM	88.8 µM	> 100 µM	> 100 µM
CCOC(=O)/C=c1\s/c(=C\c2c(OC)ccc3ccccc23)c(=O)n1CC(=O)NCC1CCCO1 (stereo unspecified)	> 100 µM (inactive)	> 100 µM	> 100 µM	> 100 µM
COc1cc(/C=C/C(=O)OCC(=O)Nc2cc(C)c(C)cc2[N+](=O)[O-])ccc1O	43 µM (inactive)	92.8 µM	> 100 µM	> 100 µM
CC1CCc2nc(NC(=O)C3COc4ccccc4O3)sc2C1 (stereo unspecified)	26.2 µM (inactive)	51.9 µM	> 100 µM	> 100 µM
O=C(Cn1c(=O)c2cccn2c2ccccc21)NCCc1ccc(Cl)cc1	> 100 µM (inactive)	> 100 µM	> 100 µM	> 100 µM
c1ccc(OCc2nnc(-c3ccccc3)o2)cc1	1.4 µM	80.4 µM	> 100 µM	> 100 µM
COc1ccc(C2(CNC(=O)c3cc([N+](=O)[O-])cc([N+](=O)[O-])c3)CCCC2)cc1OC	1.43 µM (inactive)	1.86 µM	3 µM	1.61 µM
COCCCn1c(=O)/c(=C\c2ccccc2OC(C)C)s/c1=C(/C#N)C(=O)Nc1ccc(C(=O)O)cc1	5.19 µM	13.6 µM	> 100 µM	18.5 µM
COc1cc(NC(=S)NC(=O)c2ccco2)ccc1NC(=O)C(C)C	99.6 µM (inactive)	> 100 µM	> 100 µM	> 100 µM
COC(=O)c1cc(OC)c(OC)cc1NC(=O)c1ccc(OC)c(OC)c1	31.8 µM	> 100 µM	> 100 µM	> 100 µM
O=C(Cn1nnc2c(cnn2-c2ccccc2)c1=O)N1CCN(c2ccccc2F)CC1	> 100 µM (inactive)	> 100 µM	> 100 µM	> 100 µM
COc1ccccc1CNC(=O)c1cc2c(C)nn(Cc3ccc(F)cc3)c2s1	> 100 µM (inactive)	> 100 µM	> 100 µM	> 100 µM

Structure (SMILES)	IC50	IC50 [1]	IC90 [2]	IC90 [3]
CCCCCc1nnc(NC(=O)C2COc3ccccc3O2)s1 (stereo unspecified)	62.5 µM (inactive)	> 100 µM	> 100 µM	> 100 µM
NC(=O)Nc1ccc(C(=O)OCC(=O)Nc2ccc(Cl)cn2)cc1	> 100 µM (inactive)	> 100 µM	> 100 µM	> 100 µM
CN(C)CC(=O)Nc1nc(-c2ccccc2)cs1	10.5 µM	83 µM	> 100 µM	> 100 µM
COc1cc(C(F)(F)F)nc2ccc(C#CCOC(=O)Nc3ccccc3)cc12	> 100 µM (inactive)	> 100 µM	> 100 µM	> 100 µM
CN1C/C(=N\S(=O)(=O)c2ccccc2)N(C)C1=O	13 µM (inactive)	23.6 µM	46.7 µM	33.7 µM
CCC(=O)Oc1oc(-c2ccccc2)nc1C=Nc1ccc(C)cc1	> 100 µM (inactive)	> 100 µM	> 100 µM	> 100 µM
CCOc1ccc(NC(=S)Nc2cccnc2)cc1	89.5 µM (inactive)	> 100 µM	> 100 µM	> 100 µM
COc1ccccc1/C=N/NC(=S)Nc1cccnc1	31.1 µM	> 100 µM	> 100 µM	> 50 µM
CCOc1ccc(-c2nnc(-c3ccc(OC)cc3)o2)cc1	4.65 µM	35.6 µM	> 100 µM	> 100 µM
COCCNC(=S)N/N=C1\CC(C)CC(C)(C)C1 (stereo unspecified)	24.5 µM (inactive)	32.4 µM	41.1 µM	27.5 µM
COc1nc(Nc2nc3ccccc3c(=O)[nH]2)nc2ccc(C)cc12	> 100 µM (inactive)	> 100 µM	> 100 µM	> 100 µM
O=C(Nc1ccccc1Cl)c1csc(-c2cccnc2)n1	23.9 µM	82.3 µM	> 100 µM	> 100 µM
CC(=O)c1ccc(NC(=S)Nc2ccc(N3CCOCC3)cc2)cc1	21.6 µM	> 100 µM	> 100 µM	> 100 µM
COC(=O)c1c(-c2ccc(OC)cc2)oc2ccc(-c3cc(OC)c(OC)c(OC)c3)cc12	7.72 µM	> 100 µM	> 100 µM	> 100 µM
CCN(CC)CCCNC(=O)c1c(O)c2ccccc2n(Cc2ccccc2)c1=O	12.6 µM (inactive)	23.2 µM	32.7 µM	13.8 µM
COc1cc(NC(=O)c2cc(-c3cccnc3)nc3ccc(Br)cc23)cc(OC)c1	> 100 µM (inactive)	> 100 µM	> 100 µM	> 100 µM
COc1cc2cnc(-c3ccsc3)c(-c3ccc(F)cc3)c2cc1OC	> 100 µM (inactive)	> 100 µM	> 100 µM	> 100 µM
O=C(CCNc1ccc(F)cc1)c1cccc([N+](=O)[O-])c1	> 100 µM (inactive)	> 100 µM	> 100 µM	> 100 µM
CC(=O)c1c(C)[nH]c(C(=O)OCC(=O)Nc2nnc(-c3ccccc3)o2)c1C	4.19 µM	> 100 µM	> 100 µM	> 100 µM
CC(=O)c1ccc(OC(=O)N(c2ccccc2)c2ccccc2)cc1	4.13 µM	29.6 µM	> 100 µM	32.9 µM

Structure (SMILES)	IC50	IC50 [1]	IC90 [2]	IC90 [3]
O=C(Cc1ccc(Cl)cc1Cl)Nc1ccc(OC(F)F)c(Cl)c1	12.1 µM	> 100 µM	> 100 µM	13.7 µM
COC(=O)c1ccc(/C=N\NC(=O)c2ccc(C)cc2Cl)cc1	> 100 µM (inactive)	> 100 µM	> 100 µM	> 100 µM
Nc1nc(Sc2ncccc2[N+](=O)[O-])n[nH]1	21.6 µM (inactive)	37.4 µM	> 50 µM	77.1 µM
CCCCOc1ccc(C(=O)Oc2cccnc2)cc1	19.5 µM	> 100 µM	> 100 µM	> 100 µM
CNC(=O)COC(=O)c1ccccc1NC(=O)c1ccco1	35.1 µM (inactive)	47.1 µM	> 100 µM	> 100 µM
COCCCn1c(=O)/c(=C\c2cccc(OC)c2OC)s/c1=C(/C#N)C(=O)Nc1ccc(C(=O)O)cc1	5 µM	14.6 µM	31.4 µM	24.6 µM
CN1c2ccccc2C(=O)NC1c1ccc([N+](=O)[O-])s1 (stereo unspecified)	3.09 µM	20.7 µM	38.4 µM	33.3 µM
CC(=O)OCC(=O)Nc1ccc(C(C)=O)cc1	89.2 µM (inactive)	95.5 µM	> 100 µM	> 100 µM
CC(C)(C)c1nn(-c2ccccc2)c2[nH]c(=O)c(CNc3ccc4c(c3)OCCO4)cc12	91.2 µM (inactive)	89.7 µM	> 100 µM	99.7 µM
O=C(CC(=O)c1ccccc1)Nc1ccc2c(c1)OCCO2	37.2 µM (inactive)	78.9 µM	> 100 µM	> 100 µM
O=C(COn1nnc2ccc(Cl)cc21)NC12CC3CC(CC(C3)C1)C2	> 100 µM (inactive)	> 100 µM	> 100 µM	> 100 µM
Cc1ccc(Nc2nc(N)nc(CC#N)n2)cc1	61.3 µM (inactive)	75.6 µM	> 100 µM	92.7 µM
O=c1c2c(nc3n1CCCCC3)sc1c(O)c(Br)ccc12	48 µM (inactive)	> 100 µM	> 100 µM	> 50 µM
OCCOCCn1c(C2CCCN2c2nc(-c3ccc(F)cc3)cs2)nc2cc(Cl)c(Cl)cc21 (stereo unspecified)	> 100 µM (inactive)	> 100 µM	> 100 µM	> 100 µM
CCCC(=O)N1CCN(c2ccc(NC(=S)NC(=O)CC)cc2)CC1	62.1 µM (inactive)	> 100 µM	> 100 µM	> 100 µM
O=C(CNc1ccccc1Cl)Nc1cc(S(=O)(=O)N2CCOCC2)ccc1Cl	> 100 µM (inactive)	> 100 µM	> 100 µM	> 100 µM
CCn1c(-c2ccc(-c3ccccc3)cc2)c[nH]c1=S	29.1 µM (inactive)	47.8 µM	> 100 µM	> 100 µM
Cc1ccc(NC(=O)O/N=C/c2c(C)nn(C(C)(C)C)c2C)cc1Cl	> 100 µM (inactive)	> 100 µM	> 100 µM	> 100 µM
Cc1ccsc1C(=O)NNC(=O)c1csc(N2CCOCC2)n1	62.7 µM (inactive)	> 100 µM	> 100 µM	> 100 µM
